# Measurements published in patent US11205502B2, “Processing method and processing apparatus for efficacy of combined drug” (Institute of radiation medicine, academy of military …, priority 2015, dated 2021).
# Test system: human lung cancer cell H460 lines
# Experiment: MTT method, inhibition of growth of H460 by etoposide, vincristine, 5-fluorouracil, adriamycin and three-drug combinations; expected additive effect by equivalent dose conversion
# Format: cell-based
# Settings: for Efficacy of A / Efficacy of C / Efficacy of B: from fitted single-use equation
# From the text: Title: there are many application schemes for a chemotherapeutic drug in lung cancer treatment. The chemotherapeutic drug in these schemes mainly includes the followings that belong to a topoisomerase inhibitor, a microtubule inhibitor, a metabolic inhibitor and an alkylating agent from types. One representative drug is successively selected from the four types of the drugs and respectively is etoposide (A), vincristine (B), 5-fluorouracil (C) and adriamycin (D). For any three combined application schemes, the inhibition effect to growth of human lung cancer cell H460 lines is detected with an MTT method. The three schemes successively are combinations of four combined drugs of A+B+C, A+B+D, A+C+D and B+C+D and the synergistic, additive and antagonistic effects are evaluated quantitatively. A:B:C=12.5:2:45 (μg/ml+μg/ml+μg/ml) A+B+C combination: A:B:D=12.5:2:4 (μg/ml+μg/ml+μg/ml) A+B+D combination: A:C:D=12.5:45:4 (μg/ml+μg/ml+μg/ml) A+C+D combination: B:C:D=2:45:4 (μg/ml+μg/ml+μg/ml) B+C+D combination:
# For the etoposide (A), vincristine (B) and 5-fluorouracil (C), dose-effect relationship data of single drugs and dose-effect relationship data in the combined use A:B:C=12.5:2:45 (μg/ml+μg/ml+μg/ml), see a table 9 and a table 10.
# Step 2, the dose is converted sequentially, and each dose-effect relationship data formed into an expected additive efficacy curve band under a combined condition is calculated.
# The equivalent dose conversion is performed on combinations of two drugs of A+B, A+C and B+C sequentially first and then the equivalent dose conversion is performed on (A+B)+C, (A+C)+B and (B+C)+A. An expression for an expected additive effect of the three drugs in the combined use is as follows.
# Y(A+B+C)=[Y(A+B)C, Y(A+C)+B, Y(B+c)+A] Hi^Lo↓, wherein Hi^Lo↓ Indicates function values of units in a number set and should be arranged from low to high. The Y(A+B+C)=[Y(A+B)+C, Y(A+C)+B, Y(B+c)+A]
# [1] = A:B:C=12.5:2:45 fixed proportion
compound,measurement,setting,value
"COc1cc([C@@H]2c3cc4c(cc3[C@@H](O[C@@H]3O[C@@H]5CO[C@@H](C)O[C@H]5[C@H](O)[C@H]3O)[C@H]3COC(=O)[C@H]23)OCO4)cc(OC)c1O [Etoposide (A), etoposide]",Efficacy of A,A 0.00004768 μg/ml,−1.3189%
same,Efficacy of A,A 0.00019073 μg/ml,0.5342%
same,Efficacy of A,A 0.00076294 μg/ml,3.2432%
same,Efficacy of A,A 0.00305176 μg/ml,7.1153%
same,Efficacy of A,A 0.01220703 μg/ml,12.4756%
same,Efficacy of A,A 0.048828125 μg/ml,19.5765%
same,Efficacy of A,A 0.1953125 μg/ml,28.4535%
same,Efficacy of A,A 0.78125 μg/ml,38.7811%
same,Efficacy of A,A 3.125 μg/ml,49.8373%
same,Efficacy of A,A 12.5 μg/ml,60.6678%
same,"dose range of the additive effect, etoposide (A)",[1],1.8282 to 5.4883 µg/mL
same,inhibition at 0.000190735 µg/mL,"Homo sapiens, NCI-H460, Etoposide (A) 0.000190735 μg/ml single use, read-out: Inhibition rate",1.38%
same,inhibition at 0.000762939 µg/mL,"Homo sapiens, NCI-H460, Etoposide (A) 0.000762939 μg/ml single use, read-out: Inhibition rate",3.73%
same,inhibition at 0.00305176 µg/mL,"Homo sapiens, NCI-H460, Etoposide (A) 0.003051758 μg/ml single use, read-out: Inhibition rate",-0.19%
same,inhibition at 0.012207 µg/mL,"Homo sapiens, NCI-H460, Etoposide (A) 0.012207031 μg/ml single use, read-out: Inhibition rate",16.7%
same,inhibition at 0.0488281 µg/mL,"Homo sapiens, NCI-H460, Etoposide (A) 0.048828125 μg/ml single use, read-out: Inhibition rate",17.2%
same,inhibition at 0.195312 µg/mL,"Homo sapiens, NCI-H460, Etoposide (A) 0.1953125 μg/ml single use, read-out: Inhibition rate",30.6%
same,inhibition at 0.78125 µg/mL,"Homo sapiens, NCI-H460, Etoposide (A) 0.78125 μg/ml single use, read-out: Inhibition rate",41.5%
same,inhibition at 3.125 µg/mL,"Homo sapiens, NCI-H460, Etoposide (A) 3.125 μg/ml single use, read-out: Inhibition rate",49.6%
same,inhibition at 12.5 µg/mL,"Homo sapiens, NCI-H460, Etoposide (A) 12.5 μg/ml single use, read-out: Inhibition rate",55%
same,inhibition at 50 µg/mL,"Homo sapiens, NCI-H460, Etoposide (A) 50 μg/ml single use, read-out: Inhibition rate",74.4%
"O=c1[nH]cc(F)c(=O)[nH]1 [5-fluorouracil (C), 5-fluorouracil]","dose range of the additive effect, 5-fluorouracil (C)",[1],6.5815 to 19.7579 µg/mL
same,Efficacy of C,C 0.00017166 μg/ml,−2.8810%
same,Efficacy of C,C 0.00068665 μg/ml,−2.7475%
same,Efficacy of C,C 0.00274658 μg/ml,−2.3331%
same,Efficacy of C,C 0.01098633 μg/ml,−1.0631%
same,Efficacy of C,C 0.04394531 μg/ml,2.6806%
same,Efficacy of C,C 0.17578125 μg/ml,12.5608%
same,Efficacy of C,C 0.703125 μg/ml,32.4840%
same,Efficacy of C,C 2.8125 μg/ml,57.2443%
same,Efficacy of C,C 11.25 μg/ml,74.5929%
same,Efficacy of C,C 45 μg/ml,82.4752%
same,inhibition at 0.000686646 µg/mL,"Homo sapiens, NCI-H460, 5-fluorouracil (C) 0.000686646 μg/ml single use, read-out: Inhibition rate",-0.33%
same,inhibition at 0.00274658 µg/mL,"Homo sapiens, NCI-H460, 5-fluorouracil (C) 0.002746582 μg/ml single use, read-out: Inhibition rate",6.67%
same,inhibition at 0.0109863 µg/mL,"Homo sapiens, NCI-H460, 5-fluorouracil (C) 0.010986328 μg/ml single use, read-out: Inhibition rate",-3.78%
same,inhibition at 0.0439453 µg/mL,"Homo sapiens, NCI-H460, 5-fluorouracil (C) 0.043945313 μg/ml single use, read-out: Inhibition rate",-6.89%
same,inhibition at 0.175781 µg/mL,"Homo sapiens, NCI-H460, 5-fluorouracil (C) 0.17578125 μg/ml single use, read-out: Inhibition rate",7.91%
same,inhibition at 0.703125 µg/mL,"Homo sapiens, NCI-H460, 5-fluorouracil (C) 0.703125 μg/ml single use, read-out: Inhibition rate",40%
same,inhibition at 2.8125 µg/mL,"Homo sapiens, NCI-H460, 5-fluorouracil (C) 2.8125 μg/ml single use, read-out: Inhibition rate",60.8%
same,inhibition at 11.25 µg/mL,"Homo sapiens, NCI-H460, 5-fluorouracil (C) 11.25 μg/ml single use, read-out: Inhibition rate",61.4%
same,inhibition at 45 µg/mL,"Homo sapiens, NCI-H460, 5-fluorouracil (C) 45 μg/ml single use, read-out: Inhibition rate",84.5%
same,inhibition at 180 µg/mL,"Homo sapiens, NCI-H460, 5-fluorouracil (C) 180 μg/ml single use, read-out: Inhibition rate",91%
"CC[C@]1(O)C[C@H]2CN(CCc3c([nH]c4ccccc34)[C@@](C(=O)OC)(c3cc4c(cc3OC)N(C=O)[C@H]3[C@@](O)(C(=O)OC)[C@H](OC(C)=O)[C@]5(CC)C=CCN6CC[C@]43[C@@H]65)C2)C1 [Vincristine (B), vincristine]","dose range of the additive effect, vincristine (B)",[1],0.2925 to 0.8781 µg/mL
same,Efficacy of B,B 0.00000763 μg/ml,4.9016%
same,Efficacy of B,B 0.00003052 μg/ml,4.9048%
same,Efficacy of B,B 0.00012207 μg/ml,4.9268%
same,Efficacy of B,B 0.00048828 μg/ml,5.0764%
same,Efficacy of B,B 0.00195313 μg/ml,6.0768%
same,Efficacy of B,B 0.0078125 μg/ml,12.0757%
same,Efficacy of B,B 0.03125 μg/ml,33.3731%
same,Efficacy of B,B 0.125 μg/ml,55.3101%
same,Efficacy of B,B 0.5 μg/ml,61.7291%
same,Efficacy of B,B 2 μg/ml,62.8101%
same,inhibition at 30.52 pg/mL,"Homo sapiens, NCI-H460, Vincristine (B) 0.000030518 μg/ml single use, read-out: Inhibition rate",2.75%
same,inhibition at 0.00012207 µg/mL,"Homo sapiens, NCI-H460, Vincristine (B) 0.00012207 μg/ml single use, read-out: Inhibition rate",-0.11%
same,inhibition at 0.000488281 µg/mL,"Homo sapiens, NCI-H460, Vincristine (B) 0.000488281 μg/ml single use, read-out: Inhibition rate",13.2%
same,inhibition at 0.00195312 µg/mL,"Homo sapiens, NCI-H460, Vincristine (B) 0.001953125 μg/ml single use, read-out: Inhibition rate",8.91%
same,inhibition at 0.0078125 µg/mL,"Homo sapiens, NCI-H460, Vincristine (B) 0.0078125 μg/ml single use, read-out: Inhibition rate",6.25%
same,inhibition at 0.03125 µg/mL,"Homo sapiens, NCI-H460, Vincristine (B) 0.03125 μg/ml single use, read-out: Inhibition rate",37%
same,inhibition at 0.125 µg/mL,"Homo sapiens, NCI-H460, Vincristine (B) 0.125 μg/ml single use, read-out: Inhibition rate",53.2%
same,inhibition at 0.5 µg/mL,"Homo sapiens, NCI-H460, Vincristine (B) 0.5 μg/ml single use, read-out: Inhibition rate",55.9%
same,inhibition at 2 µg/mL,"Homo sapiens, NCI-H460, Vincristine (B) 2 μg/ml single use, read-out: Inhibition rate",65.8%
same,inhibition at 8 µg/mL,"Homo sapiens, NCI-H460, Vincristine (B) 8 μg/ml single use, read-out: Inhibition rate",66.3%
